The record followed here is patent US20040086942A1, “Ige receptor antagonists” (priority 2003, published 2004).

Where a SMILES comes first, the peptide text is derived from it. Bridges are numbered along the chain shown (N, C = ends). [ ]: non-standard residue; d: D form. 2Nal = N[C@@H](Cc1ccc2ccccc2c1)C(=O)O; Pip = O=C(O)[C@@H]1CCCCN1; NMeA = CN[C@@H](C)C(=O)O; Sar = CNCC(=O)O

One series is described as follows: 2D NMR structural score versus reference peptide. It is filed as physicochemical. Also noted: key to Struct. Score: +++ indicates the peptide is structured similarly to IGE063 (SEQ ID NO:49); + indicates the peptide is structured similarly to IGE063 (SEQ ID NO:49), but is less stable; −/+ indicates the peptide has some elements of stable structure, but the conformation differs from the reference structure (e.g., a different turn type is evident); − indicates the peptide is predominantly unstructured in aqueous solution; key to Structure Score: +++, peptide structurally similar to reference; +, structurally similar to reference but significantly less stable; +/−, peptide has some elements of stable structure, but the conformation differs from the reference structure; −, peptide is predominantly unstructured; *peptide IGE037 (SEQ ID NO:128) was initially unstructured (monomeric form), but became structured after spontaneous dimer formation. The conditions noted are these: reference IGE063. The procedure:
Peptides were evaluated by 2D NMR spectroscopy to assess the effect of substitutions on the three-dimensional structure of the peptide analog. All peptides with a structural score indicated in Table 5 were analyzed by 2D NMR spectroscopy; backbone ^1H resonances were assigned and ^3JHN-Hα coupling constants were measured and compared to the reference peptide (IGE063, SEQ ID NO:49; see Example 5). Peptides are defined to be of similar structure to the reference peptide provided chemical shifts, coupling constants, and NOEs are consistent with that structure.
A structural score was assigned to peptides analyzed by 2D NMR spectroscopy. For each of these peptides, backbone ^1H resonances have been assigned, and the ^3JHN-Ha coupling constants have been measured and compared to the reference peptide (i.e., IGE134 (SEQ ID NOS:155, 171)). Peptides are defined to be of similar structure to the reference peptide provided. chemical shifts, coupling constants, and NOEs are consistent with that structure.
Consider `CSCC[C@H](NC(=O)[C@@H]1CSSC[C@H](NC(=O)[C@H](CCCNC(=N)N)NC(=O)[C@@H]2CCCN2C(=O)[C@H](CC(C)C)NC(=O)[C@@H](N)CC(N)=O)C(=O)N[C@@H]([C@@H](C)O)C(=O)N[C@@H](CCC(=O)O)C(=O)NCC(=O)N2CCC[C@H]2C(=O)N[C@@H](Cc2c[nH]c3ccccc23)C(=O)NCC(=O)N[C@@H](Cc2c[nH]c3ccccc23)C(=O)N[C@@H](Cc2ccc(O)cc2)C(=O)N1)C(=O)O` [IGE077, NLPRCTEGPWGWYCM] (H-NLPRCTEGPWGWYCM-OH; disulfide 5-14; N-terminus and C-terminus assumed), for which the “Struct. Score” value is reported as “+++”.

Take `CC(C)C[C@H](NC(=O)[C@@H](N)CC(N)=O)C(=O)N1CCC[C@H]1C(=O)N[C@@H](CCCNC(=N)N)C(=O)N[C@H]1CSSC[C@@H](C(N)=O)NC(=O)[C@H](C(C)C)NC(=O)[C@H](Cc2c[nH]c3ccccc23)NC(=O)CNC(=O)[C@H](Cc2c[nH]c3ccccc23)NC(=O)[C@@H]2CCCN2C(=O)CNC(=O)[C@H](CCC(=O)O)NC(=O)[C@H]([C@@H](C)O)NC1=O` [IGE091, NLPRCTEGPWGWVC-nh2] (H-NLPRCTEGPWGWVC-NH2; disulfide 5-14): the “Struct. Score” value is reported as “+++”.

As to `CSCC[C@H](NC(=O)[C@@H]1CSSC[C@H](NC(=O)[C@H](CCCNC(=N)N)NC(=O)[C@@H]2CCCN2C(=O)[C@H](CC(C)C)NC(=O)[C@H](CC(N)=O)NC(C)=O)C(=O)N[C@@H]([C@@H](C)O)C(=O)N[C@@H](CCC(=O)O)C(=O)NCC(=O)N2CCCC[C@H]2C(=O)N[C@@H](Cc2c[nH]c3ccccc23)C(=O)NCC(=O)N[C@@H](Cc2c[nH]c3ccccc23)C(=O)N[C@@H](C(C)C)C(=O)N1)C(=O)O` [IGE095, Ac-NLPRCTEG(Pip)WGWVCM] (Ac-NLPRCTEG[Pip]WGWVCM-OH; disulfide 5-14; C-terminus assumed), the “Struct. Score” value is listed as “+++”.

On to `CSCC[C@H](NC(=O)[C@@H]1CSSC[C@H](NC(=O)[C@H](CCCNC(=N)N)NC(=O)[C@@H]2CCCN2C(=O)[C@H](CC(C)C)NC(=O)[C@H](CC(N)=O)NC(C)=O)C(=O)N[C@@H]([C@@H](C)O)C(=O)N[C@@H](CCC(=O)O)C(=O)NCC(=O)N(C)[C@@H](C)C(=O)N[C@@H](Cc2c[nH]c3ccccc23)C(=O)NCC(=O)N[C@@H](Cc2c[nH]c3ccccc23)C(=O)N[C@@H](C(C)C)C(=O)N1)C(=O)O` [IGE096, Ac-NLPRCTEG(N-Me-A)WGWVCM] (Ac-NLPRCTEG[NMeA]WGWVCM-OH; disulfide 5-14; C-terminus assumed), for which the “Struct. Score” value is given as “+++”.

For the compound `CSCC[C@H](NC(=O)[C@@H]1CSSC[C@H](NC(=O)[C@H](CCCNC(=N)N)NC(=O)[C@@H]2CCCN2C(=O)[C@H](CC(C)C)NC(=O)[C@H](CC(N)=O)NC(C)=O)C(=O)N[C@@H]([C@@H](C)O)C(=O)N[C@@H](CCC(=O)O)C(=O)NCC(=O)N(C)CC(=O)N[C@@H](Cc2c[nH]c3ccccc23)C(=O)NCC(=O)N[C@@H](Cc2c[nH]c3ccccc23)C(=O)N[C@@H](C(C)C)C(=O)N1)C(=O)O` [IGE097, Ac-NLPRCTEG(N-Me-G)WGWVCM] (Ac-NLPRCTEG[Sar]WGWVCM-OH; disulfide 5-14; C-terminus assumed), the “Struct. Score” value is “−/+”.

As to `CSCC[C@H](NC(=O)[C@@H]1CSSC[C@H](NC(=O)[C@H](CCCNC(=N)N)NC(=O)[C@@H]2CCCN2C(=O)[C@H](CC(C)C)NC(=O)[C@H](CC(N)=O)NC(C)=O)C(=O)N[C@@H]([C@@H](C)O)C(=O)N[C@@H](CCC(=O)O)C(=O)NCC(=O)N2CCC[C@H]2C(=O)N[C@@H](Cc2ccc3ccccc3c2)C(=O)NCC(=O)N[C@@H](Cc2c[nH]c3ccccc23)C(=O)N[C@@H](C(C)C)C(=O)N1)C(=O)O` [IGE103, Ac-NLPRCTEGP(npA)GWVCM] (Ac-NLPRCTEGP[2Nal]GWVCM-OH; disulfide 5-14; C-terminus assumed), the “Struct. Score” value was “+++”.

For the compound `CSCC[C@H](NC(=O)[C@H]1CSSC[C@H](NC(=O)[C@H](CCCNC(=N)N)NC(=O)[C@@H]2CCCN2C(=O)[C@H](CC(C)C)NC(=O)[C@H](CC(N)=O)NC(C)=O)C(=O)N[C@@H]([C@@H](C)O)C(=O)N[C@@H](CCC(=O)O)C(=O)NCC(=O)N2CCC[C@H]2C(=O)N[C@@H](Cc2c[nH]c3ccccc23)C(=O)NCC(=O)N[C@@H](Cc2c[nH]c3ccccc23)C(=O)N[C@@H](C(C)C)C(=O)N1)C(=O)O` [IGE104, Ac-NLPRCTEGPWGWVcM] (Ac-NLPRCTEGPWGWV[dC]M-OH; disulfide 5-14; C-terminus assumed), the “Struct. Score” value was “−”.

For `CSCC[C@H](NC(=O)[C@@H]1CSSC[C@H](NC(=O)[C@H](CCCNC(=N)N)NC(=O)[C@@H]2CCCN2C(=O)[C@H](CC(C)C)NC(=O)[C@H](CC(N)=O)NC(C)=O)C(=O)N[C@@H]([C@@H](C)O)C(=O)N[C@@H](CCC(=O)O)C(=O)NCC(=O)N2CCC[C@H]2C(=O)N[C@@H](Cc2c[nH]c3ccccc23)C(=O)N[C@H](C)C(=O)N[C@@H](Cc2c[nH]c3ccccc23)C(=O)N[C@@H](C(C)C)C(=O)N1)C(=O)O` [IGE105, Ac-NLPRCTEGPWaWVCM] (Ac-NLPRCTEGPW[dA]WVCM-OH; disulfide 5-14; C-terminus assumed), the “Struct. Score” value is reported as “+++”.

Regarding `CSCC[C@H](NC(=O)[C@@H]1CSSC[C@H](NC(=O)[C@H](CCCNC(=N)N)NC(=O)[C@@H]2CCCN2C(=O)[C@H](CC(C)C)NC(=O)[C@H](CC(N)=O)NC(C)=O)C(=O)N[C@@H]([C@@H](C)O)C(=O)N[C@@H](CCC(=O)O)C(=O)NCC(=O)N2CCC[C@H]2C(=O)N[C@@H](C(C)C)C(=O)NCC(=O)N[C@@H](Cc2c[nH]c3ccccc23)C(=O)N[C@@H](C(C)C)C(=O)N1)C(=O)O` [IGE106, Ac-NLPRCTEGPVGWVCM] (Ac-NLPRCTEGPVGWVCM-OH; disulfide 5-14; C-terminus assumed), the “Struct. Score” value was “+++”.

For the compound `CSCC[C@H](NC(=O)[C@@H]1CSSC[C@H](NC(=O)[C@@H]2CCCN2C(=O)[C@H](CC(C)C)NC(=O)[C@H](CC(N)=O)NC(C)=O)C(=O)N[C@@H]([C@@H](C)O)C(=O)N[C@@H](CCC(=O)O)C(=O)NCC(=O)N2CCC[C@H]2C(=O)N[C@@H](Cc2c[nH]c3ccccc23)C(=O)NCC(=O)N[C@@H](Cc2c[nH]c3ccccc23)C(=O)N[C@@H](C(C)C)C(=O)N1)C(=O)O` [IGE107, Ac-NLPCTEGPWGWVCM] (Ac-NLPCTEGPWGWVCM-OH; disulfide 4-13), the “Struct. Score” value was “+”.

For `CSCC[C@H](NC(=O)[C@@H]1CSSC[C@H](NC(=O)[C@H](CCCNC(=N)N)NC(=O)[C@@H]2CCCN2C(=O)[C@H](CC(C)C)NC(=O)[C@H](CC(N)=O)NC(C)=O)C(=O)N[C@@H]([C@@H](C)O)C(=O)N[C@@H](CCC(=O)O)C(=O)NCC(=O)N2CCC[C@H]2C(=O)N[C@@H](Cc2c[nH]c3ccccc23)C(=O)NCC(=O)N[C@@H](CC(C)C)C(=O)N[C@@H](C(C)C)C(=O)N1)C(=O)O` [IGE109, Ac-NLPRCTEGPWGLVCM] (Ac-NLPRCTEGPWGLVCM-OH; disulfide 5-14; C-terminus assumed), the “Struct. Score” value is recorded as “+++”.

Ac-NLPRCTEG(hyP)WGWVCM [IGE101]: the “Struct. Score” value is listed as “+++”.

Still in this series, the particulars now being: reference IGE134.
In the case of `CC(C)C[C@@H]1NC(=O)[C@H](C)NC(=O)[C@H](Cc2c[nH]cn2)NC(=O)CNC(=O)CNC(=O)[C@H](C(C)C)NC(=O)[C@H](Cc2ccc(O)cc2)NC(=O)[C@@H]2CSSC[C@H](NC1=O)C(=O)N1CCC[C@H]1C(=O)N[C@@H](CC(=O)O)C(=O)N[C@@H](C(C)C)C(=O)N[C@H](C(=O)N[C@@H](Cc1ccc(O)cc1)C(=O)N[C@H](C(=O)NCC(=O)N[C@@H](CCCNC(=N)N)C(=O)O)C(C)C)CSSC[C@H](NC(=O)[C@H](CCC(N)=O)NC(=O)[C@@H](N)C(C)C)C(=O)N1CCC[C@H]1C(=O)N[C@@H](Cc1c[nH]cn1)C(=O)N[C@@H](Cc1ccccc1)C(=O)N2` [IGE132] (H-VQCPHFCYVGGHALCPDVCYVGR-OH; disulfide 3-19, 7-15), the “Structure Score” value was “+++”.

For `CC(C)C[C@@H]1NC(=O)[C@H](C)NC(=O)[C@H](Cc2c[nH]cn2)NC(=O)CNC(=O)CNC(=O)[C@H](C(C)C)NC(=O)[C@H](Cc2ccc(O)cc2)NC(=O)[C@@H]2CSSC[C@H](NC1=O)C(=O)N[C@@H](C)C(=O)N[C@@H](CC(=O)O)C(=O)N[C@@H](C(C)C)C(=O)N[C@H](C(=O)N[C@@H](Cc1ccc(O)cc1)C(=O)N[C@H](C(=O)NCC(=O)N[C@@H](CCCNC(=N)N)C(=O)O)C(C)C)CSSC[C@H](NC(=O)[C@H](CCC(N)=O)NC(=O)[C@@H](N)C(C)C)C(=O)N1CCC[C@H]1C(=O)N[C@@H](Cc1c[nH]cn1)C(=O)N[C@@H](Cc1ccccc1)C(=O)N2` [IGE143] (H-VQCPHFCYVGGHALCADVCYVGR-OH; disulfide 3-19, 7-15 (inferred)), the “Structure Score” value was “+++”.

On to `CC(C)C[C@@H]1NC(=O)[C@H](CCC(=O)O)NC(=O)[C@H](Cc2ccc(O)cc2)NC(=O)[C@@H]2CSSC[C@H](NC(=O)[C@H](CC(C)C)NC(=O)[C@H](CCC(=O)O)NC(=O)[C@H](Cc3ccc(O)cc3)NC(=O)[C@H](CC(=O)O)NC1=O)C(=O)N1CCC[C@H]1C(=O)N[C@@H](CC(=O)O)C(=O)N[C@@H](C(C)C)C(=O)N[C@H](C(=O)N[C@@H](Cc1ccc(O)cc1)C(=O)N[C@H](C(=O)NCC(=O)N[C@@H](CCCNC(=N)N)C(=O)O)C(C)C)CSSC[C@H](NC(=O)[C@H](CCC(N)=O)NC(=O)[C@@H](N)C(C)C)C(=O)N1CCC[C@H]1C(=O)N[C@@H](Cc1c[nH]cn1)C(=O)N[C@@H](Cc1ccccc1)C(=O)N2` [IGE156] (H-VQCPHFCYELDYELCPDVCYVGR-OH; disulfide 3-19, 7-15 (inferred)), for which the “Structure Score” value is “+++”.
